Measured values as given in US20210220356A1, “DIHYDROPYRIMIDINE DERIVATIVES AND USES THEREOF IN THE TREATMENT OF HBV INFECTION OR OF HBV-INDUCED DISEASES” (Janssen Sciences Ireland Unlimited Company, priority 2018, published 2021).
Where a name gives a salt, the structure may show the parent alone. Read-outs that look alike come from different tables or passages of the source.

Columns and labels:
HBV = HBV inhibitory activity in HepG2.2.15 cells (HBV DNA in culture medium by q-PCR); type: cell-based
Outline: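 HepG2.2.15 cells (40,000/well, 2% FBS) treated 6 days with compounds, medium refreshed once; 8 points, 3-fold dilution, top 10 uM. Secreted HBV DNA in medium extracted and quantified by q-PCR; EC50 calculated from dose-response.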

[1] = Cytotoxicity determination in HepG2.2.15 cells (CCK-8); type: cell-based; details: human, HepG2.2.15 cells, 5,000 cells/well, 6 days of compound treatment, CCK-8 absorbance 450 nm, highest concentration 100 uM
Outline: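 HepG2.2.15 cells, 5,000/well in 2% FBS medium, treated 6 days with compound (medium refreshed midway), 8-point 3-fold dilutions from 100 uM top. Viability read by CCK-8, 2.5 h at 37° C, absorbance 450 nm with 630 nm reference; CC50 from curve fitting.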

[2] = HepG2.2.15 cells, 40,000 cells/well, 6 days of compound treatment, HBV DNA in culture medium by q-PCR, highest concentration 10 uM, read-out: EC50
[3] = Hepatitis B virus, HepG2.2.15, 144 h, HepG2.2.15 cells, 40,000 cells/well, 6 days of compound treatment, HBV DNA in culture medium by q-PCR, highest concentration 10 uM, read-out: EC50
[4] = Hepatitis B virus, HepG2.2.15, 144 h

Row | SMILES | EC50 (HBV; [2]) [µM] | CC50 at 6 days ([1]; HepG2.2.15 cells) [µM] | EC50 (HBV; [3]) [µM] | EC50 (HBV; [4]) [µM] | CC50 at 6 days [1] [µM]
1 | CCOC(=O)C1=C(C2CCc3nn(CCC(=O)O)cc3C2)NC(c2nccs2)=NC1c1ccc(F)c(F)c1Cl (single isomer, unassigned) [Compound 34a, 3-(5-(6-(2-chloro-3,4-difluorophenyl)-5-(ethoxycarbonyl)-2-(thiazol-2-yl)-3,6-dihydropyrimidin-4-yl)-4,5,6,7-tetrahydro-2H-indazol-2-yl)propanoic acid] | 0.385 | 27.5 |  |  | 
2 | CCOC(=O)C1=C(C2CCc3nn(CCC(=O)O)cc3C2)NC(c2nccs2)=NC1c1ccc(F)c(F)c1Br (single isomer, unassigned) [Compound 36d, 3-(5-(6-(2-Bromo-3,4-difluorophenyl)-5-(ethoxycarbonyl)-2-(thiazol-2-yl)-3,6-dihydropyrimidin-4-yl)-4,5,6,7-tetrahydro-2H-indazol-2-yl)propanoic acid] |  | 9.7 | 0.0879 |  | 
3 | CCOC(=O)C1=C(C2CCc3[nH]ncc3C2)NC(c2nccs2)=NC1c1ccc(F)c(F)c1Cl (stereo not drawn) [Compound 66, Ethyl 4-(2-chloro-3,4-difluorophenyl)-6-(4,5,6,7-tetrahydro-1H-indazol-5-yl)-2-(thiazol-2-yl)-1,4-dihydropyrimidine-5-carboxylate] |  | 6.4 | 0.0647 |  | 
4 | CCOC(=O)C1=C(C2CCc3nc(CCC(=O)O)oc3C2)NC(c2nccs2)=NC1c1ccc(F)c(F)c1Cl (single isomer, unassigned) [Compound 58b, 3-(6-(6-(2-Chloro-3,4-difluorophenyl)-5-(ethoxycarbonyl)-2-(thiazol-2-yl)-3,6-dihydropyrimidin-4-yl)-4,5,6,7-tetrahydrobenzo[d]oxazol-2-yl)propanoic acid] |  | 9.8 | 0.0062 |  | 
5 | COC(=O)C1=C(C2CCc3nn(CCC(=O)O)cc3C2)NC(c2nccs2)=NC1c1ccc(F)c(F)c1C (stereo not drawn) [Compound 76c, 3-(5-(6-(3,4-difluoro-2-methylphenyl)-5-(methoxycarbonyl)-2-(thiazol-2-yl)-3,6-dihydropyrimidin-4-yl)-4,5,6,7-tetrahydro-2H-indazol-2-yl)propanoic acid] |  | 16.1 | 0.013 |  | 
6 | CCOC(=O)C1=C(C2CCc3nn(CCC(C)(C)C(=O)O)cc3C2)NC(c2nccs2)=NC1c1ccc(F)c(F)c1Cl (stereo not drawn) [Compound 88d, 4-(5-(6-(2-Chloro-3,4-difluorophenyl)-5-(ethoxycarbonyl)-2-(thiazol-2-yl)-3,6-dihydropyrimidin-4-yl)-4,5,6,7-tetrahydro-2H-indazol-2-yl)-2,2-dimethylbutanoic acid] |  | 9.8 | 0.0208 |  | 
7 | COC(=O)C1=C(C2CCc3nc(C(=O)O)oc3C2)NC(c2nccs2)=NC1c1ccc(F)c(F)c1Cl (stereo not drawn) [Compound 78c, lithium 6-(6-(2-chloro-3,4-difluorophenyl)-5-(methoxycarbonyl)-2-(thiazol-2-yl)-3,6-dihydropyrimidin-4-yl)-4,5,6,7-tetrahydrobenzo[d]oxazole-2-carboxylate] |  |  |  | 0.0571 | 52
8 | CCOC(=O)C1=C(C2CCc3nn(CCC(=O)O)cc3C2)NC(c2nccs2)=NC1c1ccc(F)cc1Br (single isomer, unassigned) [Compound 39b, 3-(5-(6-(2-Bromo-4-fluorophenyl)-5-(ethoxycarbonyl)-2-(thiazol-2-yl)-3,6-dihydropyrimidin-4-yl)-4,5,6,7-tetrahydro-2H-indazol-2-yl)propanoic acid] | 0.165 | 13.1 |  |  | 
9 | COC(=O)C1=C(C2CCc3nn([C@H]4C[C@@H](C(=O)O)C4)cc3C2)NC(c2nccs2)=NC1c1ccc(F)c(F)c1Cl (stereo partly drawn) [Compound 96d, (cis)-3-(5-(6-(2-Chloro-3,4-difluorophenyl)-5-(methoxycarbonyl)-2-(thiazol-2-yl)-3,6-dihydropyrimidin-4-yl)-4,5,6,7-tetrahydro-2H-indazol-2-yl)cyclobutanecarboxylic acid] |  | 19.3 | 0.0247 |  | 
10 | CCOC(=O)C1=C(C2CCc3nn(CCC(=O)O)cc3C2)NC(c2nccs2)=NC1c1ccc(F)c(F)c1C (single isomer, unassigned) [Compound 35b, 3-(5-(6-(3,4-Difluoro-2-methylphenyl)-5-(ethoxycarbonyl)-2-(thiazol-2-yl)-3,6-dihydropyrimidin-4-yl)-4,5,6,7-tetrahydro-2H-indazol-2-yl)propanoic acid] | 0.0958 | 20.7 |  |  | 
11 | COC(=O)C1=C(C2CCc3nn(CCCC(=O)O)cc3C2)NC(c2nccs2)=NC1c1ccc(F)c(F)c1Cl (single isomer, unassigned) [Compound 74B, 4-(5-(6-(2-chloro-3,4-difluorophenyl)-5-(methoxycarbonyl)-2-(thiazol-2-yl)-3,6-dihydropyrimidin-4-yl)-4,5,6,7-tetrahydro-2H-indazol-2-yl)butanoic acid] | 0.0661 | 19.6 |  |  | 
12 | CCOC(=O)C1=C(C2CCc3nn(C(C)CC(=O)O)cc3C2)NC(c2nccs2)=NC1c1ccc(F)c(F)c1Cl (single isomer, unassigned) [Compound 51b, 3-(5-(6-(2-chloro-3,4-difluorophenyl)-5-(ethoxycarbonyl)-2-(thiazol-2-yl)-3,6-dihydropyrimidin-4-yl)-4,5,6,7-tetrahydro-2H-indazol-2-yl)butanoic acid] | 0.0117 | 7.7 |  |  | 
13 | CCOC(=O)C1=C(C2CCc3nn(CCC(=O)O)cc3C2)NC(c2nccs2)=NC1c1cccc(F)c1Cl (single isomer, unassigned) [Compound 40b, 3-(5-(6-(2-Chloro-3-fluorophenyl)-5-(ethoxycarbonyl)-2-(thiazol-2-yl)-3,6-dihydropyrimidin-4-yl)-4,5,6,7-tetrahydro-2H-indazol-2-yl)propanoic acid] | 0.48 | 21.5 |  |  | 
14 | CCOC(=O)C1=C(C2CCc3nn(CCCC(=O)O)cc3C2)NC(c2nccs2)=NC1c1ccc(F)c(F)c1Cl (single isomer, unassigned) [Compound 50b, 4-(5-(6-(2-Chloro-3,4-difluorophenyl)-5-(ethoxycarbonyl)-2-(thiazol-2-yl)-3,6-dihydropyrimidin-4-yl)-4,5,6,7-tetrahydro-2H-indazol-2-yl)butanoic acid] | 0.116 | 12.6 |  |  | 
15 | CCOC(=O)C1=C(C2CCc3nn(CC(C)(C)C(=O)O)cc3C2)NC(c2ncc(F)cc2F)=NC1c1ccc(F)c(F)c1Cl (stereo not drawn) [Compound 94c, 3-(5-(6-(2-Chloro-3,4-difluorophenyl)-2-(3,5-difluoropyridin-2-yl)-5-(ethoxycarbonyl)-3,6-dihydropyrimidin-4-yl)-4,5,6,7-tetrahydro-2H-indazol-2-yl)-2,2-dimethylpropanoic acid hydrochloride] |  |  |  | 0.0071 | 16.5
16 | COC(=O)C1=C(C2CCc3nn(CCC(=O)O)cc3C2)NC(c2nccs2)=NC1c1ccc(F)cc1C (stereo not drawn) [Compound 80c, 3-(5-(6-(4-fluoro-2-methylphenyl)-5-(methoxycarbonyl)-2-(thiazol-2-yl)-3,6-dihydropyrimidin-4-yl)-4,5,6,7-tetrahydro-2H-indazol-2-yl)propanoic acid] |  | 33.2 | 0.0724 |  | 
17 | CCOC(=O)C1=C(C2CCc3c(cn(CCC(=O)O)c3C#N)C2)NC(c2nccs2)=NC1c1ccc(F)c(F)c1Cl (stereo not drawn) [Compound 62, 3-(5-(6-(2-Chloro-3,4-difluorophenyl)-5-(ethoxycarbonyl)-2-(thiazol-2-yl)-3,6-dihydropyrimidin-4-yl)-1-cyano-4,5,6,7-tetrahydro-2H-isoindol-2-yl)propanoic acid] |  | 5 | 0.0069 |  | 
18 | CCOC(=O)C1=C(C2CCc3nn(CC(C)(C)C(=O)O)cc3C2)NC(c2nccs2)=NC1c1ccc(F)c(F)c1C (stereo not drawn) [Compound 92c, 3-(5-(6-(3,4-difluoro-2-methylphenyl)-5-(ethoxycarbonyl)-2-(thiazol-2-yl)-3,6-dihydropyrimidin-4-yl)-4,5,6,7-tetrahydro-2H-indazol-2-yl)-2,2-dimethylpropanoic acid] |  | 9.3 | 0.0079 |  | 
19 | CCOC(=O)C1=C(C2CCc3oc(CCC(=O)O)nc3C2)NC(c2nccs2)=NC1c1ccc(F)c(F)c1Cl (single isomer, unassigned) [Compound 57c, 3-(5-(6-(2-Chloro-3,4-difluorophenyl)-5-(ethoxycarbonyl)-2-(thiazol-2-yl)-3,6-dihydropyrimidin-4-yl)-4,5,6,7-tetrahydrobenzo[d]oxazol-2-yl)propanoic acid] | 0.0125 | 7.7 |  |  | 
20 | COC(=O)C1=C(C2CCc3nn(CCC(=O)O)cc3C2)NC(c2nccs2)=NC1c1ccc(F)c(F)c1Br (single isomer, unassigned) [Compound 46a, 3-(5-(6-(2-Bromo-3,4-difluorophenyl)-5-(methoxycarbonyl)-2-(thiazol-2-yl)-3,6-dihydropyrimidin-4-yl)-4,5,6,7-tetrahydro-2H-indazol-2-yl)propanoic acid] | 0.219 | 17.3 |  |  | 
21 | COC(=O)C1=C(C2CCc3nn(CC(C)(C)C(=O)O)cc3C2)NC(c2nccs2)=NC1c1ccc(F)c(F)c1Cl (stereo not drawn) [Compound 84d, 3-(5-(6-(2-chloro-3,4-difluorophenyl)-5-(methoxycarbonyl)-2-(thiazol-2-yl)-3,6-dihydropyrimidin-4-yl)-4,5,6,7-tetrahydro-2H-indazol-2-yl)-2,2-dimethylpropanoic acid] |  | 16.4 | 0.0188 |  | 
